According to patent US11974990B2, “TXNIP-TRX complex inhibitors and methods of using the same” (City of Hope, priority 2018, dated 2024):
Entries after “also recorded” stand apart in the source; their conditions may differ.

Experiments:
purified TXNIP = target: T1, purified TXNIP (Homo sapiens, UniProt Q9H3M7); assay: DARTS assay with purified TXNIP and TRX1 proteins; format: binding; conditions: purified TXNIP + TRX1, protease, 7 minutes (FIG. 16)
T1 construct: purchased LSBio (TXNIP); Sigma (TRX1); host or cells: E. coli (TXNIP)
T1 sequence (Q9H3M7 1-391): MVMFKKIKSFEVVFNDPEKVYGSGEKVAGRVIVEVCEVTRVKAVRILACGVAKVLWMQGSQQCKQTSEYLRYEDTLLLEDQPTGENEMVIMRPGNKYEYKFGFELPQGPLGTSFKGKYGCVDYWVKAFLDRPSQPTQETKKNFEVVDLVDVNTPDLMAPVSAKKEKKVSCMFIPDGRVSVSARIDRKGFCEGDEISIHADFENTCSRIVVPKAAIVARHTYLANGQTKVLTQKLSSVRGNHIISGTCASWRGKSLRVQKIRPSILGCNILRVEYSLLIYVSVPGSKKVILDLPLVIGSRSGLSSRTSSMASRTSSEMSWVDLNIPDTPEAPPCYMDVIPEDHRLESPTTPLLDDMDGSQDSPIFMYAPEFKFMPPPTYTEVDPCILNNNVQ
Procedure: FIG. 16. […] Purified TRX and TXNIP proteins and C1 (at the indicated concentrations) were mixed together. Protease was added. Aliquots were withdrawn at 7 minutes and loaded on 10% SDS gels. C1: compound 1; control: without protease.
To further confirm that C1 is able to protect TXNIP from proteolysis in the presence of TXNIP+TRX1, we performed DARTS assay using pure TXNIP protein (LSBio) and TRX1 protein (Sigma). The TRX1 protein we employed is also usually used for TRX1 activity assays. In contrast, the TXNIP protein is generated by E. coli and might not be in the active form. Therefore, we re-natured the protein prior to use in the DARTS assay.

TNF-α mRNA [1] = assay: TNF-α mRNA expression (RT-PCR) in murine RAW macrophages; format: cell-based; conditions: RAW cells, 25 mM glucose, 72 h (FIG. 10B)
Procedure: FIGS. 10A-10B. FIG. 10A. […] RAW cells were cultured in 25 mM glucose with C1 (uM) for 72 h. Total RNA was prepared. RT-PCR was performed. Data shown are the mean+SEM from triplicates. Statistical analysis was performed for each column vs. high glucose (HG) DMSO using one-way ANOVA: *<0.0001. FIG. 10B. […] RAW cells were cultured in 25 mM glucose with C1 (uM) for 72 hours. Total RNA was prepared. RT-PCR was performed. Data shown are the mean+SEM from triplicates. Statistical analysis was performed for each column vs. HG DMSO using one-way ANOVA: *<0.0001.
(§1) RNA extraction and quantitative RT-PCR. RNA was extracted using the Direct-zol™ RNA MiniPrep Plus (Zymo Research). Reverse transcription of RNA samples into cDNA was performed using the GeneAmp RNA PCR Kit (Applied Biosystems), dNTP (from Roche Applied Science), Rnase inhibitor, MULV Reverse Transcriptase and Random hexamers reagent (all from Invitrogen). Diluted cDNA was quantified using real-time PCR performed with Power SYBR Green qPCR MasterMix (Applied Biosystem) and 7500 real-time PCR system (Applied Biosystems). The HPRT1 gene was used as an internal control.

TNF-α mRNA [2] = assay: TNF-α mRNA expression (RT-PCR) in human 1.1B4 pancreatic β cells; format: cell-based; conditions: 1.1B4 β cells, 25 mM glucose, 72 h (FIG. 12 right)
Procedure: FIG. 12. […] Human 1.1B4 β cells were cultured in 25 mM glucose with C1 (uM) for 72 h. Total RNA was prepared. RT-PCR was performed. Data shown are the mean+SEM from triplicates. Statistical analysis was performed for each column vs. HG DMSO using one-way ANOVA: *<0.0001.
as §1

TNF-α mRNA [3] = assay: TNF-α mRNA expression (RT-PCR) in THP1 cells under high glucose; format: cell-based, human
Procedure: FIG. 8. […] High glucose induced TNF expression in THP1 cells. This HG induced TNF increase is alleviated by C1 in dose manner (1.25, 2.5 and 5 uM). Results shown are means±SE of triplet real-time PCRs. *:P=0.002 vs. HG only, by t tests; **:P=0.001 vs. HG only, by t tests.
(§2) FIGS. 9A-9B. FIG. 9A. […] THP1 cells were cultured in 25 mM glucose with the indicated concentrations of C1 for 72 h. Cell were collected for total RNA preparation. RT-PCR were performed and data shown are the mean+SEM from triplicates. Statistical analysis was performed using one-way ANOVA, *<0.0001. FIG. 9B. […] THP1 cells were cultured in 25 mM glucose and C1 (uM) as indicated for 72 hours and collected for total RNA preparation. RT-PCR was performed. Data shown are the mean+SEM from triplicates. Statistical analysis was performed using one-way ANOVA: *<0.02; **<0.0001.
(§3) RNA extraction and quantitative RT-PCR. RNA was extracted using the Direct-zol™ RNA MiniPrep Plus (Zymo Research). […] Diluted cDNA was quantified using real-time PCR performed with Power SYBR Green qPCR MasterMix (Applied Biosystem) and 7500 real-time PCR system (Applied Biosystems). […]
(§4) RNA extraction and quantitative RT-PCR. […] Diluted cDNA was quantified using real-time PCR performed with Power SYBR Green qPCR MasterMix (Applied Biosystem) and 7500 real-time PCR system (Applied Biosystems). […]

TXNIP mRNA [4] = assay: TXNIP mRNA expression (RT-PCR) in THP1 cells under 25 mM glucose; format: cell-based, human; conditions: THP1, 25 mM glucose, concentration range of C1, 72 h (FIG. 9A)
Procedure: as §2
FIG. 13. C1 analogs affects TXNIP mRNA expression in THP1 cells. THP1 cells were cultured in 25 mM glucose with 5 uM of compounds for 72 h. Total RNA was collected and RT-PCR was performed in triplicate and data shown are the mean+SEM. Statistical analysis was performed using one-way ANOVA: *<0.0001.
as §3, §4

TXNIP mRNA [5] = assay: TXNIP mRNA expression (RT-PCR) in primary human pancreatic islets; format: cell-based; conditions: human pancreatic islets (500 IEQ), 25 mM glucose, 48 h (FIG. 18)
Procedure: FIG. 18. […] Human pancreatic islets (500 IEQ) were cultured with PIM(R) (Prodo Labs) in 25 mM glucose with C1 as indicated for 48 h. Total RNA was collected. RT-PCR was performed in triplicate and data shown are the mean+SEM. Statistical analysis was performed using one-way ANOVA: *<0.0001.
as §1

- protection of purified TXNIP from proteolysis (purified TXNIP): protects purified TXNIP from proteolysis
Structure (SMILES): CC(C)C(C(=O)O)N1C(=O)c2ccncc2C1=O (stereo not shown) [Compound C1, 2-(1,3-dioxo-1,3-dihydro-2H-pyrrolo[3,4-c]pyridin-2-yl)-3-methylbutanoic acid]
- TNF-α mRNA expression (TNF-α mRNA [1]): decreased TNF-α mRNA expression; also recorded: inhibited TXNIP and TNF-α mRNA expression
- TNF-α mRNA expression (TNF-α mRNA [2]): affects TXNIP and TNF-α mRNA expression; also recorded: decreased TNF-α expression
- TNF-α mRNA expression (TNF-α mRNA [3]; THP1, 25 mM glucose, concentration range of C1, 72 h (FIG. 9B)): inhibits TNF-α mRNA expression; also recorded: lower levels of TNF-α mRNA
- HG-induced TNF expression (TNF-α mRNA [3]; THP1, high glucose, C1 1.25, 2.5 and 5 uM (FIG. 8)): attenuate high glucose induced expression of inflammatory cytokine molecules
- TXNIP mRNA expression (TXNIP mRNA [4]): inhibits TXNIP mRNA expression; also recorded: attenuate high glucose induced expression of inflammatory cytokine molecules and TXNIP in monocytes; also recorded: inhibit TXNIP expression in a dose-dependent manner
- TXNIP mRNA (TXNIP mRNA [5]): targets TXNIP mRNA; also recorded: efficiently inhibited TXNIP mRNA
